In PubChem BioAssay AID1259407 (Chemical Carcinogenesis Research Information System (CCRIS), 2018):
The source made the active and inactive calls. The rule behind the calls is not given here.

Tested on: CCRIS mutagenicity, Ames/micronucleus/aberration tests
Assay: CCRIS mutagenicity studies

SMILES: CCCCNC(=O)c1cc(N)ccc1Oc1ccc(C)cc1
- mutagenic call (Test System: Ames Salmonella typhimurium, Strain/Indicator: TA98, Metabolic Activation: None, Method: Preincubation): inactive; negative. data for pa31 mentioned in abstract only.
- mutagenic call (Test System: Ames Salmonella typhimurium, Strain/Indicator: TA98, Metabolic Activation: Rat, Liver, S-9, Phenobarbital and beta-naphthoflavone, Method: Preincubation): active; positive
- mutagenic call (Test System: Ames Salmonella typhimurium, Strain/Indicator: TA100, Metabolic Activation: None, Method: Preincubation): inactive; negative. data for pa31 mentioned in abstract only.
- mutagenic call (Test System: Ames Salmonella typhimurium, Strain/Indicator: TA100, Metabolic Activation: Rat, Liver, S-9, Phenobarbital and beta-naphthoflavone, Method: Preincubation): active; positive
- mutagenic call (Test System: Ames Salmonella typhimurium, Strain/Indicator: TA102, Metabolic Activation: None, Method: Preincubation): inactive; negative. data for pa31 mentioned in abstract only.
- mutagenic call (Test System: Ames Salmonella typhimurium, Strain/Indicator: TA1535, Metabolic Activation: None, Method: Preincubation): inactive; negative. data for pa31 mentioned in abstract only.
- mutagenic call (Test System: Ames Salmonella typhimurium, Strain/Indicator: TA1537, Metabolic Activation: None, Method: Preincubation): inactive; negative. data for pa31 mentioned in abstract only.

SMILES: C=Cc1ccc(O)c(OC)c1
- mutagenic call (Test System: AMES SALMONELLA TYPHIMURIUM, Strain/Indicator: TA98, Metabolic Activation: HAMSTER, LIVER, S-9, AROCLOR 1254, Method: STANDARD PLATE): inactive; negative
- mutagenic call (Test System: AMES SALMONELLA TYPHIMURIUM, Strain/Indicator: TA98, Metabolic Activation: NONE, Method: STANDARD PLATE): inactive; negative
- mutagenic call (Test System: AMES SALMONELLA TYPHIMURIUM, Strain/Indicator: TA98, Metabolic Activation: RAT, LIVER, S-9, AROCLOR 1254, Method: STANDARD PLATE): inactive; negative
- mutagenic call (Test System: AMES SALMONELLA TYPHIMURIUM, Strain/Indicator: TA100, Metabolic Activation: HAMSTER, LIVER, S-9, AROCLOR 1254, Method: STANDARD PLATE): inactive; negative
- mutagenic call (Test System: AMES SALMONELLA TYPHIMURIUM, Strain/Indicator: TA100, Metabolic Activation: NONE, Method: STANDARD PLATE): inactive; negative
- mutagenic call (Test System: AMES SALMONELLA TYPHIMURIUM, Strain/Indicator: TA100, Metabolic Activation: RAT, LIVER, S-9, AROCLOR 1254, Method: STANDARD PLATE): inactive; negative
- mutagenic call (Test System: AMES SALMONELLA TYPHIMURIUM, Strain/Indicator: TA1535, Metabolic Activation: HAMSTER, LIVER, S-9, AROCLOR 1254, Method: STANDARD PLATE): inactive; negative
- mutagenic call (Test System: AMES SALMONELLA TYPHIMURIUM, Strain/Indicator: TA1535, Metabolic Activation: NONE, Method: STANDARD PLATE): inactive; negative
- mutagenic call (Test System: AMES SALMONELLA TYPHIMURIUM, Strain/Indicator: TA1535, Metabolic Activation: RAT, LIVER, S-9, AROCLOR 1254, Method: STANDARD PLATE): inactive; negative
- mutagenic call (Test System: AMES SALMONELLA TYPHIMURIUM, Strain/Indicator: TA1537, Metabolic Activation: HAMSTER, LIVER, S-9, AROCLOR 1254, Method: STANDARD PLATE): inactive; negative
- mutagenic call (Test System: AMES SALMONELLA TYPHIMURIUM, Strain/Indicator: TA1537, Metabolic Activation: NONE, Method: STANDARD PLATE): inactive; negative
- mutagenic call (Test System: AMES SALMONELLA TYPHIMURIUM, Strain/Indicator: TA1537, Metabolic Activation: RAT, LIVER, S-9, AROCLOR 1254, Method: STANDARD PLATE): inactive; negative
- mutagenic call (Test System: MOUSE LYMPHOMA, Strain/Indicator: L5178Y (TK+/TK-), Metabolic Activation: NONE, Method: SUSPENSION/PLATE): inactive; negative. reevaluation of results: equivocal
- mutagenic call (Test System: MOUSE LYMPHOMA, Strain/Indicator: L5178Y (TK+/TK-), Metabolic Activation: RAT, LIVER, S-9, AROCLOR 1254, Method: SUSPENSION/PLATE): inactive; negative. reevaluation of results: negative
